Paper PMC6151550, “Inhibitory Effect of Selaginellins from Selaginella tamariscina (Beauv.) Spring against Cytochrome P450 and Uridine 5′-Diphosphoglucuronosyltransferase Isoforms on Human Liver Microsomes” (Molecules : A Journal of Synthetic Chemistry and Natural …, 2017)

Target: T1, UGT1A4 (Homo sapiens, UniProt P22310)
T1 construct: from tissue; host or cells: human liver microsomes
T1 sequence (P22310 29-534): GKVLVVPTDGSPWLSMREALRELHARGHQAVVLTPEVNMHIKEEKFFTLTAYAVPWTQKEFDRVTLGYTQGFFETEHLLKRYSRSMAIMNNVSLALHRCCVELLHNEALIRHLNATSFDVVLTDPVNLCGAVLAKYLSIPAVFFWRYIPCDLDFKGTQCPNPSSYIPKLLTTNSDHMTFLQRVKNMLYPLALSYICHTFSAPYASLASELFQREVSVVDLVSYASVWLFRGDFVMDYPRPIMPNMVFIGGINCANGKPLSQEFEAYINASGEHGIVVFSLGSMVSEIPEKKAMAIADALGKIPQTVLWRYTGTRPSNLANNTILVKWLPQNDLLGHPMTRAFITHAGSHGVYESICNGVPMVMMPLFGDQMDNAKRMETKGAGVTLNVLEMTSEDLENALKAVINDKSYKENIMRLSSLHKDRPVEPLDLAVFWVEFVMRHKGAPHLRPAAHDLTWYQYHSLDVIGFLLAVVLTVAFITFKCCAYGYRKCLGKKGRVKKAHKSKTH
Test: UGT1A4 inhibition (trifluoperazine glucuronidation) in human liver microsomes, cocktail LC-MS/MS
Type: in vitro ADME
Procedure: The inhibitory effects of two selaginellins on the metabolism of six UGT probe substrates were evaluated using previously reported method with minor modification. In brief, HLMs (0.25 mg/mL) were activated by incubation in the presence of alamethicin (25 μg/mL) for 15 min on ice. After the addition of UGT isoform-selective substrates and selaginellins (0, 0.5, 2, 5, 20 and 50 μM) the final concentrations of organic solvent (methanol) for the cocktail incubation conditions were 1.0% (v/v). The incubation reaction mixtures were pre-incubated for 5 min. The reaction was initiated by the addition of 5 mM UDPGA and further incubated for 60 min. All reactions were terminated by adding ice-cold acetonitrile containing estrone glucuronide (IS). After mixing and centrifugation, aliquots were injected into a LC-MS/MS as described previously (Table 2). All microsomal incubations were performed in triplicate.
The IC50 values (concentration of the inhibitor causing 50% inhibition of the original enzyme activity) were calculated using WinNonlin software (Pharsight, Mountain View, CA, USA): percentage of control activity = 100 × [1 − (I/(I + IC50))], where I is the inhibitor concentration, and IC50 is the inflection point on the curve.

| Compound | IC50 [µM] |
| --- | --- |
| COc1ccc(C(=C2C=CC(=O)C=C2)c2c(-c3ccc(O)cc3)ccc(CO)c2C#Cc2ccc(O)cc2)cc1 [Selaginellin M] | 3.9 |
| O=C1C=CC(=C(c2ccc(O)cc2)c2c(-c3ccc(O)cc3)ccc(CO)c2C#Cc2ccc(O)cc2)C=C1 [Selaginellin] | 6.6 |
